Data from patent US9539284B2 (GLOBOASIA, LLC, priority 2006, dated 2017).
Several values for one entry are separate records, joined by “and”; a condition that tells them apart may be missing. Identical values can stand only once. Like-named read-outs stand apart in the source and are kept apart here.

Tests used:
[1] = Fe3+ content per 500 mg compound (selection criterion 3); type: physicochemical
Source text: 3. Appropriate equivalence of ferric ion per gram of compound. The potential ferric compound should contain enough ferric ions to effectively bind with dietary phosphate.

[2] = cited from earlier work
[3] = Harvey et al. 1998; cited from earlier work

Row | Compound | Fe^3+ content per 500 mg compound ([1]; per 500 mg compound, unit mg) | pKa of anionic group [2] | other results
1 | O=C([O-])CN(CCN(CC(=O)[O-])CC(=O)O)CC(=O)[O-].[Fe+3] [ferric EDTA] | 81 mg | – | –
2 | O=C([O-])CN(CCO)CCN(CC(=O)[O-])CC(=O)[O-].[Fe+3] [ferric HEDTA] | 85 mg | – | –
3 | CC(=O)[O-].CC(=O)[O-].CC(=O)[O-].[Fe+3] [ferric acetate] | – | – | Fe^3+ content per 500 mg compound [1]: 120 mg
4 | CC(=O)/C=C(/C)[O-].CC(=O)/C=C(/C)[O-].CC(=O)/C=C(/C)[O-].[Fe+3] [ferric acetylacetonate] | 78 mg | – | –
5 | O=C([O-])[O-].O=C([O-])[O-].O=C([O-])[O-].[Fe+3].[Fe+3] [ferric carbonate] | – | 10.3 | Fe^3+ content per 500 mg compound [1]: 191 mg
6 | C[N+](C)(C)CCO.O=C([O-])CC(O)(CC(=O)[O-])C(=O)[O-].[Fe+3] [ferric choline citrate] | – | – | Fe^3+ content per 500 mg compound [1]: 79 mg
7 | O=C[O-].O=C[O-].O=C[O-].[Fe+3] [ferric formate] | – | pKa = 3.75 | Fe^3+ content per 500 mg compound [1]: 147 mg
8 | O=C([O-])/C=C/C(=O)[O-].O=C([O-])/C=C/C(=O)[O-].O=C([O-])/C=C/C(=O)[O-].[Fe+3].[Fe+3] [ferric fumarate] | 125 mg | pKa = 3.02 | –
9 | O=C([O-])CC(O)C(=O)[O-].O=C([O-])CC(O)C(=O)[O-].O=C([O-])CC(O)C(=O)[O-].[Fe+3].[Fe+3] (stereo not drawn) [ferric malate] | 110 mg | pKa = 3.4 | –
10 | CCCCC(CC)C(=O)[O-].CCCCC(CC)C(=O)[O-].CCCCC(CC)C(=O)[O-].[Fe+3] (stereo not drawn) [ferric octoate] | 58 mg | – | –
11 | O=C([O-])C(=O)[O-].O=C([O-])C(=O)[O-].O=C([O-])C(=O)[O-].[Fe+3].[Fe+3] [ferric oxalate] | 142 mg | pKa = 1.25 | –
12 | NCC(=O)[O-].NCC(=O)[O-].NCC(=O)[O-].[Fe+3] [ferric triglycinate] | – | pKa = 2.35 | Fe^3+ content per 500 mg compound [1]: 100 mg
13 | Cc1occc(=O)c1[O-].Cc1occc(=O)c1[O-].Cc1occc(=O)c1[O-].[Fe+3] [ferric trimaltol] | 65 mg | – | correcting iron deficiency [3]: capable of correcting iron deficiency
14 | ferric ascorbate | 121 mg | pKa = 4.04 | –
15 | ferric aspartate | 62 mg | pKa = 1.99 | –
16 | ferric citrate [reference compound] | 114 mg | pKa = 6.4 | –
17 | ferric gluconate | 44 mg | – | –
18 | ferric histidinate | 54 mg | – | –
19 | ferric oleate | 31 mg | – | –
20 | ferric picolinate | 66 mg | – | –
21 | ferric tartrate | 56 mg and 100 mg | – | pKa of anionic group, pKa1 ([2]; first pKa): pKa1 = 2.98; pKa of anionic group, pKa2 ([2]; second pKa): pKa2 = 4.34
